“Also recorded” adds a separate entry of the source.
Legend:
[1] = system: severely burned (>40% total body surface area) children; assay: Energy expenditure by metabolic cart (indirect calorimetry); assay type: in vivo, human
Experimental: Between midnight and 5 AM on the day of study, oxygen consumption (VO2), carbon dioxide production (VCO2), respiratory quotient (RQ) and resting energy expenditure (REE) were determined with a metabolic cart (Sensormedics Model 2900; Yorba Linda, Calif.) at 30° C. ambient room temperature during continuous feeding.

[2] = system: severely burned (>40% total body surface area) children; assay: Fat-free mass by whole body potassium 40 counting; assay type: in vivo, human
Experimental: (§1) Two weeks after treatment was started, a second series of metabolic and protein kinetic studies was performed. Subjects who received at least a four-week treatment course underwent a second whole-body potassium measurement. At discharge, subjects underwent body composition scanning by a dual image x-ray absorptiometry.
Determination of Fat-Free Mass using Potassium 40 Whole Body Counting. Fat-Free Mass was determined by Whole Body Potassium 40 (^40K) scintillation counting in a heavily shielded low background noise counting room, a 32 NaI detector array, and computed data analysis which has been validated for use in children.^20,21 The counting precision of the instrument used is <1.5%, which was calibrated daily using BOMAB Phantoms with simulated fat overlays. All studies were done after feedings and IV fluids were discontinued to minimize exogenous potassium contamination.

[3] = system: severely burned (>40% total body surface area) children; assay: Lean body mass by dual image x-ray absorptiometry (DEXA); assay type: in vivo, human
Experimental: as §1
Total body lean mass and fat mass were measured by dual image x-ray absorptometry. A Hologic model QDR-4500W DEXA (Hologic Inc, Waltham, Mass.) with the pediatric software package was used to measure body composition.

[4] = system: severely burned (>40% total body surface area) children; assay: Clinical safety: sepsis, held doses, complications during hospitalization; assay type: in vivo, human
[5] = system: severely burned (>40% total body surface area) children; assay: Serum glucose, potassium and hormone values; details: result in words
[6] = system: severely burned (>40% total body surface area) children; assay: Vital signs (hourly heart rate, blood pressure, temperature)
[7] = system: severely burned (>40% total body surface area) children; assay: Stable isotope cross-leg skeletal muscle protein kinetic study
[8] = between metabolic studies, result in words
[9] = result in words, listed as propranolol
[10] = two weeks of oral propranolol, mean ± SEM
[11] = after treatment, n = 11, model derived, mean, listed as heads read shifted one entry

CC(C)NCC(O)COc1cccc2ccccc12 (stereo not drawn) [Propranolol, propranolol]
Carbon dioxide production vs non-treated group [1, 8]: significant decreases
Oxygen consumption vs non-treated group [1, 8]: significant decreases
Respiratory quotient [1, 8]: did not change
Resting energy expenditure vs baseline / non-treated group [1, 9]: lower than baseline and lower than those of the control group; also recorded: significant decreases
Carbon dioxide production, change from baseline [1, 10]: −64 ± 22
Oxygen consumption, change from baseline [1, 10]: −56 ± 22
Respiratory quotient, change from baseline [1, 10]: −0.1 ± 0.1
Resting energy expenditure, change from baseline [1, 10]: −422 ± 197
Loss of fat free mass ([2]; 4 weeks of treatment, twelve propranolol subjects, p=0.003 vs controls): 1%
Fat free mass by whole body potassium counter ([2]; four weeks of treatment, result in words): did not change; also recorded: preserved
Improvement of lean body mass percentage vs non-treated control group ([3]; at discharge, p=0.01): ~6%
Lean body mass percentage ([3]; at full healing and discharge, 9 treated subjects): 79.1±1.2%
Subjects who developed sepsis ([4]; during hospitalization, p=1.0 vs controls): 4 of 13
Subjects in whom one or more doses were held temporarily for a mean arterial pressure between 60 and 65 ([4]; during treatment course): 3 of 13
Asthma ([4]; result in words): No asthma occurred
Evidence of tissue hypoperfusion (wound conversion to full thickness, metabolic acidosis) ([4]; result in words): No other direct or indirect evidence of tissue hypoperfusion
Negative clinical sequela resulting from β-blockade ([4]; result in words): No negative clinical sequela
Serum potassium values vs non-treated group [5]: higher
Heart rates vs baseline and control group ([6]; during beta blockade, p<0.05, result in words): lower than baseline and lower than those of the control group
Decrease in heart rate compared with patient's own baseline and with non-treated controls ([6]; oral propranolol titrated, p=0.03): 20%
Blood pressure vs non-treated group / with treatment [6, 9]: not statistically different; also recorded: no significant decrease
Diastolic blood pressure, change from baseline [6, 10]: −5 ± 5 mm/mHg
Mean arterial pressure, change from baseline [6, 10]: 1 ± 8 mHg
Systolic blood pressure, change from baseline [6, 10]: −4 ± 5 mHg
FSR, fractional synthetic rate, rate of incorporation of tracer into muscle over time ([7]; after treatment, n = 11, mean): 0.34 %/hr
FM,A, inward transport into myocyte [7, 11]: 0.264 μmol Phe/min/100 ml leg
FM,O, muscle protein breakdown [7, 11]: 0.287 μmol Phe/min/100 ml leg
FO,M, muscle protein synthesis [7, 11]: 0.337 μmol Phe/min/100 ml leg
FV,A, A→V shunt past muscle [7, 11]: 0.821 μmol Phe/min/100 ml leg
FV,M, outward transport from myocyte [7, 11]: 0.214 μmol Phe/min/100 ml leg
Fin, amino acid inflow into leg via femoral artery [7, 11]: 1.085 μmol Phe/min/100 ml leg
Fout, amino acid outflow from leg via femoral vein [7, 11]: 1.034 μmol Phe/min/100 ml leg
Rd, rate of disappearance, approximating protein synthesis [7, 11]: 0.157 μmol Phe/min/100 ml leg
Protein synthesis measured by direct incorporation of the tracer ([7]; long-term β-blockade, result in words): increased
Muscle protein net balance from baseline and vs non-treated controls ([7]; result in words): improved
Muscle protein net balance from baseline and vs non-treated controls [7, 9]: achieved anabolic levels

— US7098248B2, “Beta-adrenergic blockade reversal of catabolism after severe burn” (Research Development Foundation, priority 2001, dated 2006)
